Among the data in patent publication US20250277066A1, “Substituted Pyridine-2,6-Bis(Phenylenephenolate) Complexes with Enhanced Solubility that are Useful as Catalyst Components for Olefin Polymerization” (ExxonMobil Chemical Patents Inc., priority 2022, published 2025) are Activity and Tm values, retold here.

Where “and” joins values, the source holds several entries; their conditions need not be identical. Equal entries are not always repeated.

A short description of data set [1]: Propylene polymerization (PP) in small-scale autoclave reactors: yield, quench time, catalyst activity. The text has this: Solutions of the pre-catalysts were made using toluene (ExxonMobil Chemical—anhydrous, stored under N2) (98%) or isohexane (ExxonMobil Chemical—polymerization grade, and purified as described below). Pre-catalyst solutions were typically 0.25 mmol/L.
Solvents, polymerization grade toluene and/or isohexanes were supplied by ExxonMobil Chemical Co. and are purified by passing through a series of columns: two 500 cc Oxyclear cylinders in series from Labclear (Oakland, Calif), followed by two 500 cc columns in series packed with dried […] (8-12 mesh; Aldrich Chemical Company), and two 500 cc columns in series packed with dried 5 Å mole sieves (8-12 mesh; Aldrich Chemical Company).
Polymerization grade propylene (C3) was used and further purified by passing it through a series of columns: 2250 cc Oxiclear cylinder from Labclear followed by a 2250 cc column packed with 3 Å mole sieves (8-12 mesh; Aldrich Chemical Company), then two 500 cc columns in series packed with 5 Å mole sieves (8-12 mesh; Aldrich Chemical Company), then a 500 cc column packed with Selexsorb CD (BASF), and finally a 500 cc column packed with Selexsorb COS (BASF).
Activation of the pre-catalysts was either by dimethylanilinium tetrakisperfluorophenylborate (Boulder Scientific or Albemarle Corp; Act ID=A) or is (hydrogenated tallow alkyl)methylammonium tetrakis(pentafluorophenyl)borate supplied as a 10 wt % solution in methylcyclohexane (Boulder Scientific; Act ID=B). Activators were typically used as a 0.25 mmol/L solution in toluene or isohexane.
Tri-n-octylaluminum (TnOAl or TNOA, Neat, AkzoNobel) was also used as a scavenger prior to introduction of the activator and pre-catalyst into the reactor. TNOA was typically used as a 5 mmol/L solution in toluene or isohexane.
Polymerizations were conducted in an inert atmosphere (N2) drybox using autoclaves equipped with an external heater for temperature control, glass inserts (internal volume of reactor=23.5 mL for C2 and C2/C8; 22.5 mL for C3 runs), septum inlets, regulated supply of nitrogen, ethylene and propylene, and equipped with disposable PEEK mechanical stirrers (800 RPM). The autoclaves were prepared by purging with dry nitrogen at 110° C. or 115° C. for 5 hours and then at 25° C. for 5 hours.
The reactor was prepared as described above, then heated to 40° C., and then purged with propylene gas at atmospheric pressure. Toluene or isohexanes, liquid propylene (1.0 mL) and scavenger (TNOA, 0.5 μmol) were added via syringe. The reactor was then brought to process temperature (70° C. or 100° C.) while stirring at 800 RPM. The activator solution, followed by the pre-catalyst solution, were injected via syringe to the reactor at process conditions. Reactor temperature was monitored and typically maintained within +/−1° C. Polymerizations were halted by addition of approximately 50 psi compressed dry air gas mixture to the autoclaves for approximately 30 seconds. The polymerizations were quenched based on a predetermined pressure loss (maximum quench value) or for a maximum of 30 minutes. The reactors were cooled and vented. The polymers were isolated after the solvent was removed in-vacuo. The actual quench time (s) is reported as quench time (s). Yields reported include total weight of polymer and residual catalyst. Catalyst activity is reported as grams of polymer per mmol transition metal compound per hour of reaction time (g/mmol·hr).
Polymerization results are collected in Tables 2 below. “Ex #” stands for example number. Example numbers starting with a “C” are comparative examples. “Cat ID” identifies the pre-catalyst used in the experiment. Corresponding numbers identifying the pre-catalyst (also referred to as pre-catalyst, catalyst, complex or compound) are located in the synthetic experimental section. T(° C.) is the polymerization temperature which was typically maintained within +/−1° C. “Yield” is polymer yield, and is not corrected for catalyst residue. […]

Data set [2] can be described thus: DSC melting point of polymers (TA-Q100). It is filed as physicochemical. The method, then: Differential Scanning Calorimetry (DSC) measurements were performed on a TA-Q100 instrument to determine the melting point of the polymers. Samples were pre-annealed at 220° C. for 15 minutes and then allowed to cool to room temperature overnight. The samples were then heated to 220° C. at a rate of 100° C./minute and then cooled at a rate of 50° C./minute. Melting points were collected during the heating period. The results are reported in the Table 2 under the heading, Tm (° C.).

Take `CC(C)(C)c1cc2c(c(C34CC5CC(CC(C5)C3)C4)c1)[O][Zr-]1([CH3])([CH3])[O]c3c(cc(C(C)(C)C)cc3C34CC5CC(CC(C5)C3)C4)-c3ccccc3-c3cccc([n+]31)-c1ccccc1-2` [Complex 2]: the Activity in data set [1] (activator B, T 70° C.) was 2,069,268 g P/mmol cat • hr and 4,201,200 g P/mmol cat • hr and 3,074,182 g P/mmol cat • hr; in data set [1] (activator B, T 100° C.), 2,345,000 g P/mmol cat • hr and 2,682,545 g P/mmol cat • hr and 2,225,032 g P/mmol cat • hr. Moreover, the Tm in data set [2] (polypropylene made with activator A at 70° C.) is 147.1 °C and 148.3 °C; in data set [2] (polypropylene made with activator A at 100° C.), 147.6 °C and 145.6 °C and 146.6 °C; in data set [2] (polypropylene made with activator B at 70° C.), 148.8 °C and 149.3 °C and 148.6 °C; in data set [2] (polypropylene made with activator B at 100° C.) it was 148.0 °C and 147.3 °C.
With `Cc1cc2[n+]3c(c1)-c1ccccc1-c1cc(C(C)(C)C)cc(C45CC6CC(CC(C6)C4)C5)c1[O][Zr-]3([CH3])([CH3])[O]c1c(cc(C(C)(C)C)cc1C13CC4CC(CC(C4)C1)C3)-c1ccccc1-2` [Complex 3], the Activity was 1,623,360 g P/mmol cat • hr and 2,345,333 g P/mmol cat • hr in data set [1] (activator A, T 70° C.); 1,030,400 g P/mmol cat • hr and 1,074,880 g P/mmol cat • hr and 1,034,182 g P/mmol cat • hr in data set [1] (activator B, T 70° C.); 844,235 g P/mmol cat • hr and 476,276 g P/mmol cat • hr and 766,154 g P/mmol cat • hr in data set [1] (activator B, T 100° C.). For the same compound, the Tm was 150.4 °C and 150.9 °C in data set [2] (polymer made with activator A, T 70 ° C.); 149.4 °C and 148.1 °C and 150.1 °C in data set [2] (polymer made with activator A, T 100 ° C.); 150.5 °C and 150.9 °C in data set [2] (polymer made with activator B, T 70 ° C.); 148.9 °C and 149.8 °C in data set [2] (polymer made with activator B, T 100 ° C.).
